test system: kynurenine production in IFN-γ-treated KATO-III cells; experiment: Inhibitory activity on kynurenine production (Test Example 1); format: cell-based; conditions: Homo sapiens, IFN-γ treatment, culture for 96 hours, read-out: IC50 value, inhibition of kynurenine production
Procedure, shortened: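 KATO-III human gastric cancer cells (2,000/well, RPMI 1640 + 10% FBS) were cultured with compound and IFN-γ (31.25 ng/mL in the cell suspension), DMSO ≤0.1%, for 96 h at 37 °C, 5% CO2. Kynurenine was read at A480 after TCA at 65 °C and p-dimethylaminobenzaldehyde. Inhibition used IFN-γ-treated and untreated DMSO wells as references.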

IC50 [nM]	SMILES
< 1000	CCNS(=O)(=O)Nc1nc2ccccc2nc1OC(c1cccnc1)C(F)(F)F (stereo not shown) [Compound 195, N-ethyl-N′-{3-[2,2,2-trifluoro-1-(pyridin-3-yl)ethoxy]-quinoxalin-2-yl}sulfuric diamide]
< 1000	CCCS(=O)(=O)Nc1nc2ccccc2nc1OC(c1cnc(Cl)s1)C(F)(F)F (stereo not shown) [Compound 196, N-{3-[1-(2-chlorothiazol-5-yl)-2,2,2-trifluoroethoxy]-quinoxalin-2-yl}propane-1-sulfonamide]
< 1000	CCCS(=O)(=O)Nc1nc2ccccc2nc1OC(c1ccc(CN(C)C)cc1)C(F)(F)F (stereo not shown) [Compound 197, N-{3-[1-(4-((dimethylamino)methyl)phenyl)-2,2,2-trifluoroethoxy]quinoxalin-2-yl}propane-1-sulfonamide]
< 1000	Cc1noc(C)c1S(=O)(=O)Nc1nc2ccccc2nc1OC(c1cnc(Cl)s1)C(F)(F)F (stereo not shown) [Compound 198, N-{3-[1-(2-chlorothiazol-5-yl)-2,2,2-trifluoroethoxy]-quinoxalin-2-yl}-3,5-dimethylisoxazole-4-sulfonamide]
< 1000	Cc1nn(C)c(Cl)c1S(=O)(=O)Nc1nc2ccccc2nc1OC(c1ccc(C#N)cc1)C(F)(F)F (stereo not shown) [Compound 200, 5-chloro-N-{3-[1-(4-cyanophenyl)-2,2,2-trifluoroethoxy]-quinoxalin-2-yl}-1,3-dimethyl-1H-pyrazole-4-sulfonamide]
< 1000	Cc1noc(C)c1S(=O)(=O)Nc1nc2ccccc2nc1OC(c1ccc(C#N)cc1)C(F)(F)F (stereo not shown) [Compound 201, N-{3-[1-(4-cyanophenyl)-2,2,2-trifluoroethoxy]quinoxalin-2-yl}-3,5-dimethylisoxazole-4-sulfonamide]
< 1000	CCCS(=O)(=O)Nc1nc2ccccc2nc1OC(c1ccc(C#N)cc1)C(F)(F)F (stereo not shown) [Compound 202, N-{3-[1-(4-cyanophenyl)-2,2,2-trifluoroethoxy]quinoxalin-2-yl}propane-1-sulfonamide]
< 1000	Cc1nn(C)c(Cl)c1S(=O)(=O)Nc1nc2ccccc2nc1OC(c1ccc(CN(C)C)cc1)C(F)(F)F (stereo not shown) [Compound 203, 5-chloro-N-{3-[1-(4-((dimethylamino)methyl)phenyl)-2,2,2-trifluoroethoxy]quinoxalin-2-yl}-1,3-dimethyl-1H-pyrazole-4-sulfonamide]
< 1000	Cc1noc(C)c1S(=O)(=O)Nc1nc2ccccc2nc1OC(c1ccc(CN(C)C)cc1)C(F)(F)F (stereo not shown) [Compound 204, N-{3-[1-(4-((dimethylamino)methyl)phenyl)-2,2,2-trifluoroethoxy]quinoxalin-2-yl}-3,5-dimethylisoxazole-4-sulfonamide]
< 1000	COCCCNS(=O)(=O)Nc1nc2ccccc2nc1OC(c1cccnc1)C(F)(F)F (stereo not shown) [Compound 206, N-{3-[2,2,2-trifluoro-1-(pyridin-3-yl)ethoxy]quinoxalin-2-yl}-N′-(3-methoxypropyl)-sulfuric diamide]
< 1000	CCOCCNS(=O)(=O)Nc1nc2ccccc2nc1OC(c1cccnc1)C(F)(F)F (stereo not shown) [Compound 207, N-{3-[2,2,2-trifluoro-1-(pyridin-3-yl)ethoxy]quinoxalin-2-yl}-N′-(2-ethoxyethyl)-sulfuric diamide]
< 1000	CC(C)(C)OC(=O)NCCc1ccc(S(=O)(=O)Nc2nc3ccccc3nc2OC(c2cccnc2)C(F)(F)F)cc1 (stereo not shown) [Compound 208, tert-butyl 4-(N-{3-[2,2,2-trifluoro-1-(pyridin-3-yl)ethoxy]quinoxalin-2-yl}sulfamoyl)phenethylcarbamate]
< 1000	CCCS(=O)(=O)Nc1nc2ccccc2nc1OC(c1cccnc1)C(C)C (stereo not shown) [Compound 210, N-{3-[2-methyl-1-(pyridin-3-yl)propoxy]quinoxalin-2-yl}-propane-1-sulfonamide]
< 1000	CCCNS(=O)(=O)Nc1nc2ccccc2nc1OC(c1cccnc1)C(C)C (stereo not shown) [Compound 213, N-{3-[2-methyl-1-(pyridin-3-yl)propoxy]quinoxalin-2-yl}-N′-propyl-sulfuric diamide]
< 1000	CCCNS(=O)(=O)Nc1nc2ccccc2nc1OC(c1ccc[n+]([O-])c1)C(C)C (stereo not shown) [Compound 214, 3-{2-methyl-1-[3-(N-propylsulfamoylamino)quinoxalin-2-yloxy]propyl}pyridine 1-oxide]
< 1000	CCCS(=O)(=O)Nc1nc2ccccc2nc1OC(C1CCOCC1)C(F)(F)F (stereo not shown) [Compound 215, N-{3-[2,2,2-trifluoro-1-(tetrahydro-2H-pyran-4-yl)ethoxy]-quinoxalin-2-yl}propane-1-sulfonamide]
< 1000	CCCNS(=O)(=O)Nc1nc2ccccc2nc1OC(C1CCOCC1)C(F)(F)F (stereo not shown) [Compound 216, N-propyl-N′-{3-[2,2,2-trifluoro-1-(tetrahydro-2H-pyran-4-yl)ethoxy]quinoxalin-2-yl}sulfuric diamide]
1000 to 10000	O=S(=O)(Nc1nc2ccccc2nc1SCc1ccccc1)c1ccccc1Cl [Compound 221, N-[3-(benzylthio)quinoxalin-2-yl]-2-chlorobenzenesulfonamide]
< 1000	CC(Sc1nc2ccccc2nc1NS(=O)(=O)c1ccccc1Cl)c1ccccc1 (stereo not shown) [Compound 224, 2-chloro-N-[3-(1-phenylethylthio)quinoxalin-2-yl]benzenesulfonamide]

IC50 [nM]	SMILES
< 1000	CC(C)C(Oc1nc2ccccc2nc1NS(=O)(=O)c1cccc(Cl)c1Cl)C(C)C [Compound 226, 2,3-dichloro-N-[3-(2,4-dimethylpentan-3-yloxy)quinoxalin-2-yl]benzenesulfonamide]
< 1000	CC(CN1CCOCC1)Oc1nc2ccccc2nc1NS(=O)(=O)c1ccccc1Cl (stereo not shown) [Compound 230, 2-chloro-N-[3-(1-morpholinopropan-2-yloxy)quinoxalin-2-yl]-benzenesulfonamide]
1000 to 10000	CC(Oc1nc2ccccc2nc1NS(=O)(=O)c1ccccc1Cl)C(C)(C)C (stereo not shown) [Compound 231, 2-chloro-N-[3-(3,3-dimethylbutan-2-yloxy)quinoxalin-2-yl]-benzenesulfonamide]
1000 to 10000	CCOCC(C)Oc1nc2ccccc2nc1NS(=O)(=O)c1ccccc1Cl (stereo not shown) [Compound 232, 2-chloro-N-[3-(1-ethoxypropan-2-yloxy)quinoxalin-2-yl]-benzenesulfonamide]
< 1000	CCC(=O)C(CC)Oc1nc2ccccc2nc1NS(=O)(=O)c1ccccc1Cl (stereo not shown) [Compound 237, 2-chloro-N-[3-(4-oxohexan-3-yloxy)quinoxalin-2-yl]benzenesulfonamide]
< 1000	O=S(=O)(Nc1nc2ccccc2nc1OC(c1cccnc1)c1cccnc1)c1ccccc1Cl [Compound 242, 2-chloro-N-[3-(dipyridin-3-ylmethoxy)quinoxalin-2-yl]-benzenesulfonamide]
< 1000	O=S(=O)(Nc1nc2ccccc2nc1OC(c1cccnc1)c1cncs1)c1ccccc1Cl (stereo not shown) [Compound 243, 2-chloro-N-{3-[pyridin-3-yl(thiazol-5-yl)methoxy]-quinoxalin-2-yl}benzenesulfonamide]
< 1000	CCC1(COc2nc3ccccc3nc2NS(=O)(=O)c2ccccc2Cl)CCOCC1 [Compound 245, 2-chloro-N-{3-[(4-ethyltetrahydro-2H-pyran-4-yl)methoxy]-quinoxalin-2-yl}benzenesulfonamide]
< 1000	CC1(COc2nc3ccccc3nc2NS(=O)(=O)c2ccccc2Cl)CCOCC1 [Compound 246, 2-chloro-N-{3-[(4-methyltetrahydro-2H-pyran-4-yl)methoxy]-quinoxalin-2-yl}benzenesulfonamide]
1000 to 10000	COC1(COc2nc3ccccc3nc2NS(=O)(=O)c2ccccc2Cl)CCOCC1 [Compound 247, 2-chloro-N-{3-[(4-methoxytetrahydro-2H-pyran-4-yl)methoxy]-quinoxalin-2-yl}benzenesulfonamide]
1000 to 10000	N#CC1(COc2nc3ccccc3nc2NS(=O)(=O)c2ccccc2Cl)CCOCC1 [Compound 250, 2-chloro-N-{3-[(4-cyanotetrahydro-2H-pyran-4-yl)methoxy]-quinoxalin-2-yl}benzenesulfonamide]
1000 to 10000	CC1(COc2nc3ccccc3nc2NS(=O)(=O)c2ccccc2Cl)COCOC1 [Compound 251, 2-chloro-N-{3-[(5-methyl-1,3-dioxan-5-yl)methoxy]-quinoxalin-2-yl}benzenesulfonamide]
1000 to 10000	Cc1cc2nc(NS(=O)(=O)c3ccccc3Cl)c(OC(c3cccnc3)C(F)(F)F)nc2cc1C (stereo not shown) [Compound 260, 2-chloro-N-{6,7-dimethyl-3-[2,2,2-trifluoro-1-(pyridin-3-yl)ethoxy]quinoxalin-2-yl}benzenesulfonamide]
< 1000	Cc1ccc2nc(NS(=O)(=O)c3ccccc3Cl)c(OC(c3cccnc3)C(F)(F)F)nc2c1 (stereo not shown) [Compound 262, 2-chloro-N-{6-methyl-3-[2,2,2-trifluoro-1-(pyridin-3-yl)-ethoxy]quinoxalin-2-yl}benzenesulfonamide]
< 1000	O=S(=O)(Nc1nc2cc3ccccc3cc2nc1OC(c1cccnc1)C(F)(F)F)c1ccccc1Cl (stereo not shown) [Compound 263, 2-chloro-N-{3-[2,2,2-trifluoro-1-(pyridin-3-yl)ethoxy]-benzo[g]quinoxalin-2-yl}benzenesulfonamide]
< 1000	O=S(=O)(Nc1nc2cc(Cl)c(Cl)cc2nc1OC(c1cccnc1)C(F)(F)F)c1ccccc1Cl (stereo not shown) [Compound 264, 2-chloro-N-{6,7-dichloro-3-[2,2,2-trifluoro-1-(pyridin-3-yl)ethoxy]quinoxalin-2-yl}benzenesulfonamide]
< 1000	Cc1cccc2nc(OC(c3cccnc3)C(F)(F)F)c(NS(=O)(=O)c3ccccc3Cl)nc12 (stereo not shown) [Compound 265, 2-chloro-N-{8-methyl-3-[2,2,2-trifluoro-1-(pyridin-3-yl)-ethoxy]quinoxalin-2-yl}benzenesulfonamide]
< 1000	Cc1cccc2nc(NS(=O)(=O)c3ccccc3Cl)c(OC(c3cccnc3)C(F)(F)F)nc12 (stereo not shown) [Compound 266, 2-chloro-N-{5-methyl-3-[2,2,2-trifluoro-1-(pyridin-3-yl)-ethoxy]quinoxalin-2-yl}benzenesulfonamide]

Reference: patent publication US8673908B2, “Kynurenine production inhibitor” (Kyowa Hakko Kirin Co., Ltd., priority 2008, dated 2014)
